Results published in patent US20020137929A1, “1 - (3-heterocyclylphenyl) isothiourea, -isourea, -guanidine and -amidine herbicidal agents” (Intellectual Property Department, BASF Aktiengesellschaft, priority 1998, published 2002).

Experiments:
ECHCG (Barnyardgrass) = assay: Postemergence herbicidal evaluation; type: in vivo, Echinochloa crus-galli; conditions: postemergence
Method in brief: (§1)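 Each compound, dispersed in an acetone/water mix (50/50) carrying 0.5% TWEEN 20, is nozzle-sprayed at 40 psi on approximately two-week-old seedlings at about 0.0156–0.500 kg/ha. Plants are assessed 4–5 weeks afterward on a 0–9 scale relative to control; duplicate tests are averaged.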

AMBEL (Ragweed, Common) [1] = assay: Postemergence herbicidal evaluation; type: in vivo, Ambrosia artemisifolia; conditions: postemergence
Method in brief: as §1

[2] = test system: GLXMAW (Soybean, Williams); assay: Preemergence herbicidal evaluation; type: in vivo, Glycine max, (L.) Merr. cv Williams; conditions: rated 4-5 weeks after treatment
Method in brief: (§2)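 Test compound, dissolved in aqueous acetone, was sprayed over planted soil cups at an equivalent of about 0.0156 to 0.500 kg/ha; seeds had been mixed with potting soil. Greenhouse growth followed, with visual 0-9 scoring of injury at four to five weeks.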

ORYSAT (Rice, Tebonnet) = assay: Preemergence herbicidal evaluation; type: in vivo, Oryza sativa, (L.) Tebonnet; conditions: rated 4-5 weeks after treatment
Method in brief: as §2

ABUTH (Velvetleaf) = assay: Preemergence herbicidal evaluation; type: in vivo, Abutilon theophrasti; conditions: rated 4-5 weeks after treatment
Method in brief: as §2

MOOVA (Monochoria) = assay: Preemergence weed control under flooded paddy conditions; type: in vivo, Monochoria vaginalis; conditions: rated 3-4 weeks after treatment
Method in brief: (§3)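 Silt loam, seeds in top 0.5 cm; flood held 1.5-3 cm; test cpd as acetone/water 50/50 into flood water, ~0.0313-0.500 kg/ha a.i.; greenhouse 3-4 wk; visual 0-9 score vs control.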

[3] = test system: SAGPY (Arrowhead (Pygmaea)); assay: as above; type: in vivo, Sagittaria pygmaea; conditions: rated 3-4 weeks after treatment
Method in brief: as §3

[4] = test system: CHEAL (Lambsquarters, Common); assay: Preemergence herbicidal evaluation; type: in vivo, Chenopodium album; conditions: rated 4-5 weeks after treatment
Method in brief: as §2

AMBEL (Ragweed, Common) [5] = assay: Preemergence herbicidal evaluation; type: in vivo, Ambrosia artemisifolia; conditions: rated 4-5 weeks after treatment
Method in brief: as §2

CASOB (Sicklepod) [6] = assay: Preemergence herbicidal evaluation; type: in vivo, Cassia obtusifolia; conditions: rated 4-5 weeks after treatment
Method in brief: as §2

[7] = test system: IPOHE (Morningglory, Ivyleaf); assay: Preemergence herbicidal evaluation; type: in vivo, Ipomoea hederacea; conditions: rated 4-5 weeks after treatment
Method in brief: as §2

[8] = test system: CHEAL (Lambsquarters, Common); assay: Postemergence herbicidal evaluation; type: in vivo, Chenopodium album; conditions: postemergence
Method in brief: as §1

[9] = test system: GLXMAW (Soybean, Williams); assay: Postemergence herbicidal evaluation; type: in vivo, Glycine max, (L.) Merr. cv Williams; conditions: postemergence
Method in brief: as §1

[10] = test system: TRZAWR (Wheat, Winter, cv Riband); assay: Postemergence herbicidal evaluation; type: in vivo, Triticum aestivum; conditions: postemergence
Method in brief: as §1

[11] = test system: IPOHE (Morningglory, Ivyleaf); assay: Postemergence herbicidal evaluation; type: in vivo, Ipomoea hederacea; conditions: postemergence
Method in brief: as §1

CASOB (Sicklepod) [12] = assay: Postemergence herbicidal evaluation; type: in vivo, Cassia obtusifolia; conditions: postemergence
Method in brief: as §1

[13] = rate 0.0313 kg/ha, rating scale 0-9
[14] = rate 0.0625 kg/ha, rating scale 0-9
[15] = rate 0.1250 kg/ha, rating scale 0-9
[16] = rate 0.2500 kg/ha, rating scale 0-9

CSCCN1C(=O)CSC1=Nc1cc(-n2c(=O)cc(C(F)(F)F)n(C)c2=O)c(F)cc1Cl [Compound 157]
herbicidal rating ECHCG (ECHCG (Barnyardgrass); rate 0.0156 kg/ha): 0.0
herbicidal rating ECHCG (ECHCG (Barnyardgrass); rate 0.0313 kg/ha): 1.0
herbicidal rating ECHCG (ECHCG (Barnyardgrass); rate 0.0625 kg/ha): 2.0
herbicidal rating AMBEL (AMBEL (Ragweed, Common) [1]; rate 0.0156 kg/ha): 2.0
herbicidal rating AMBEL (AMBEL (Ragweed, Common) [1]; rate 0.0313 kg/ha): 2.0
herbicidal rating AMBEL (AMBEL (Ragweed, Common) [1]; rate 0.0625 kg/ha): 5.0
Preemergence herbicidal rating GLXMAW [2, 13]: 1.0
Preemergence herbicidal rating GLXMAW [2, 14]: 0.0
Preemergence herbicidal rating GLXMAW [2, 15]: 2.0
Preemergence herbicidal rating GLXMAW [2, 16]: 4.0
Preemergence herbicidal rating ORYSAT (ORYSAT (Rice, Tebonnet); [13]): 0.0
Preemergence herbicidal rating ORYSAT (ORYSAT (Rice, Tebonnet); [14]): 0.0
Preemergence herbicidal rating ORYSAT (ORYSAT (Rice, Tebonnet); [15]): 0.0
Preemergence herbicidal rating ORYSAT (ORYSAT (Rice, Tebonnet); [16]): 0.0
Preemergence herbicidal rating ABUTH (ABUTH (Velvetleaf); [13]): 0.0
Preemergence herbicidal rating ABUTH (ABUTH (Velvetleaf); [14]): 0.0
Preemergence herbicidal rating ABUTH (ABUTH (Velvetleaf); [15]): 4.0
Preemergence herbicidal rating ABUTH (ABUTH (Velvetleaf); [16]): 6.0
herbicidal effect rating, MOOVA (MOOVA (Monochoria); 0.2500 kg/ha): 0.0
herbicidal effect rating, SAGPY ([3]; 0.2500 kg/ha): 0.0
Preemergence herbicidal rating CHEAL [4, 13]: 1.0
Preemergence herbicidal rating CHEAL [4, 14]: 0.0
Preemergence herbicidal rating CHEAL [4, 15]: 9.0
Preemergence herbicidal rating CHEAL [4, 16]: 9.0
Preemergence herbicidal rating AMBEL (AMBEL (Ragweed, Common) [5]; [13]): 0.0
Preemergence herbicidal rating AMBEL (AMBEL (Ragweed, Common) [5]; [14]): 0.0
Preemergence herbicidal rating AMBEL (AMBEL (Ragweed, Common) [5]; [15]): 0.0
Preemergence herbicidal rating AMBEL (AMBEL (Ragweed, Common) [5]; [16]): 1.0
Preemergence herbicidal rating CASOB (CASOB (Sicklepod) [6]; [13]): 1.0
Preemergence herbicidal rating CASOB (CASOB (Sicklepod) [6]; [14]): 0.0
Preemergence herbicidal rating CASOB (CASOB (Sicklepod) [6]; [15]): 1.0
Preemergence herbicidal rating CASOB (CASOB (Sicklepod) [6]; [16]): 5.0
Preemergence herbicidal rating IPOHE [7, 13]: 0.0
Preemergence herbicidal rating IPOHE [7, 14]: 0.0
Preemergence herbicidal rating IPOHE [7, 15]: 1.0
Preemergence herbicidal rating IPOHE [7, 16]: 2.0
herbicidal rating CHEAL ([8]; rate 0.0156 kg/ha): 2.0
herbicidal rating CHEAL ([8]; rate 0.0313 kg/ha): 4.0
herbicidal rating CHEAL ([8]; rate 0.0625 kg/ha): 9.0
herbicidal rating GLXMAW ([9]; rate 0.0156 kg/ha): 4.5
herbicidal rating GLXMAW ([9]; rate 0.0313 kg/ha): 5.0
herbicidal rating GLXMAW ([9]; rate 0.0625 kg/ha): 7.5
herbicidal rating TRZAWR ([10]; rate 0.0156 kg/ha): 2.5
herbicidal rating TRZAWR ([10]; rate 0.0313 kg/ha): 3.5
herbicidal rating TRZAWR ([10]; rate 0.0625 kg/ha): 4.0
herbicidal rating IPOHE ([11]; rate 0.0156 kg/ha): 3.0
herbicidal rating IPOHE ([11]; rate 0.0313 kg/ha): 7.0
herbicidal rating IPOHE ([11]; rate 0.0625 kg/ha): 6.0
herbicidal rating CASOB (CASOB (Sicklepod) [12]; rate 0.0156 kg/ha): 0.0
herbicidal rating CASOB (CASOB (Sicklepod) [12]; rate 0.0313 kg/ha): 0.0
herbicidal rating CASOB (CASOB (Sicklepod) [12]; rate 0.0625 kg/ha): 3.0

COC(=O)CSCCN1C(=O)CSC1=Nc1cc(-n2c(=O)cc(C(F)(F)F)n(C)c2=O)c(F)cc1Cl [Compound 158, Methyl {{2-{2-{{2-chloro-5-[3,6-dihydro-3-methyl-2,6-dioxo-4-(trifluoromethyl)-1(2H)-pyrimidinyl]-4-fluorophenyl}imino}-4-oxo-3-thiazolidinyl}ethyl}-thio}acetate]
herbicidal rating ECHCG (ECHCG (Barnyardgrass); rate 0.0156 kg/ha): 2.0
herbicidal rating ECHCG (ECHCG (Barnyardgrass); rate 0.0313 kg/ha): 2.0
herbicidal rating ECHCG (ECHCG (Barnyardgrass); rate 0.0625 kg/ha): 3.0
herbicidal rating AMBEL (AMBEL (Ragweed, Common) [1]; rate 0.0156 kg/ha): 6.0
herbicidal rating AMBEL (AMBEL (Ragweed, Common) [1]; rate 0.0313 kg/ha): 7.0
herbicidal rating AMBEL (AMBEL (Ragweed, Common) [1]; rate 0.0625 kg/ha): 9.0
Preemergence herbicidal rating GLXMAW ([2]; 0.0156 kg/ha): 1.0
Preemergence herbicidal rating GLXMAW ([2]; 0.0313 kg/ha): 4.0
Preemergence herbicidal rating GLXMAW ([2]; 0.0625 kg/ha): 6.0
Preemergence herbicidal rating GLXMAW [2, 15]: 7.0
Preemergence herbicidal rating GLXMAW [2, 16]: 9.0
Preemergence herbicidal rating ORYSAT (ORYSAT (Rice, Tebonnet); 0.0156 kg/ha): 3.0
Preemergence herbicidal rating ORYSAT (ORYSAT (Rice, Tebonnet); 0.0313 kg/ha): 4.0
Preemergence herbicidal rating ORYSAT (ORYSAT (Rice, Tebonnet); 0.0625 kg/ha): 7.0
Preemergence herbicidal rating ORYSAT (ORYSAT (Rice, Tebonnet); [15]): 7.0
Preemergence herbicidal rating ORYSAT (ORYSAT (Rice, Tebonnet); [16]): 8.0
Preemergence herbicidal rating ABUTH (ABUTH (Velvetleaf); 0.0156 kg/ha): 9.0
Preemergence herbicidal rating ABUTH (ABUTH (Velvetleaf); 0.0313 kg/ha): 9.0
Preemergence herbicidal rating ABUTH (ABUTH (Velvetleaf); 0.0625 kg/ha): 9.0
Preemergence herbicidal rating ABUTH (ABUTH (Velvetleaf); [15]): 9.0
Preemergence herbicidal rating ABUTH (ABUTH (Velvetleaf); [16]): 9.0
herbicidal effect rating, MOOVA (MOOVA (Monochoria); 0.0313 kg/ha): 9.0
herbicidal effect rating, MOOVA (MOOVA (Monochoria); 0.0625 kg/ha): 9.0
herbicidal effect rating, MOOVA (MOOVA (Monochoria); 0.1250 kg/ha): 9.0
herbicidal effect rating, MOOVA (MOOVA (Monochoria); 0.2500 kg/ha): 9.0
herbicidal effect rating, SAGPY ([3]; 0.0313 kg/ha): 4.0
herbicidal effect rating, SAGPY ([3]; 0.0625 kg/ha): 5.0
herbicidal effect rating, SAGPY ([3]; 0.1250 kg/ha): 6.0
herbicidal effect rating, SAGPY ([3]; 0.2500 kg/ha): 9.0
Preemergence herbicidal rating CHEAL ([4]; 0.0156 kg/ha): 9.0
Preemergence herbicidal rating CHEAL ([4]; 0.0313 kg/ha): 9.0
Preemergence herbicidal rating CHEAL ([4]; 0.0625 kg/ha): 9.0
Preemergence herbicidal rating CHEAL [4, 15]: 9.0
Preemergence herbicidal rating CHEAL [4, 16]: 9.0
Preemergence herbicidal rating AMBEL (AMBEL (Ragweed, Common) [5]; 0.0156 kg/ha): 1.0
Preemergence herbicidal rating AMBEL (AMBEL (Ragweed, Common) [5]; 0.0313 kg/ha): 3.0
Preemergence herbicidal rating AMBEL (AMBEL (Ragweed, Common) [5]; 0.0625 kg/ha): 7.0
Preemergence herbicidal rating AMBEL (AMBEL (Ragweed, Common) [5]; [15]): 9.0
Preemergence herbicidal rating AMBEL (AMBEL (Ragweed, Common) [5]; [16]): 9.0
Preemergence herbicidal rating CASOB (CASOB (Sicklepod) [6]; 0.0156 kg/ha): 1.0
Preemergence herbicidal rating CASOB (CASOB (Sicklepod) [6]; 0.0313 kg/ha): 3.0
Preemergence herbicidal rating CASOB (CASOB (Sicklepod) [6]; 0.0625 kg/ha): 4.0
Preemergence herbicidal rating CASOB (CASOB (Sicklepod) [6]; [15]): 9.0
Preemergence herbicidal rating CASOB (CASOB (Sicklepod) [6]; [16]): 5.0
Preemergence herbicidal rating IPOHE ([7]; 0.0156 kg/ha): 1.0
Preemergence herbicidal rating IPOHE ([7]; 0.0313 kg/ha): 4.0
Preemergence herbicidal rating IPOHE ([7]; 0.0625 kg/ha): 7.0
Preemergence herbicidal rating IPOHE [7, 15]: 9.0
Preemergence herbicidal rating IPOHE [7, 16]: 9.0
herbicidal rating CHEAL ([8]; rate 0.0156 kg/ha): 6.0
herbicidal rating CHEAL ([8]; rate 0.0313 kg/ha): 7.0
herbicidal rating CHEAL ([8]; rate 0.0625 kg/ha): 9.0
herbicidal rating GLXMAW ([9]; rate 0.0156 kg/ha): 5.0
herbicidal rating GLXMAW ([9]; rate 0.0313 kg/ha): 5.0
herbicidal rating GLXMAW ([9]; rate 0.0625 kg/ha): 7.0
herbicidal rating TRZAWR ([10]; rate 0.0156 kg/ha): 3.5
herbicidal rating TRZAWR ([10]; rate 0.0313 kg/ha): 4.0
herbicidal rating TRZAWR ([10]; rate 0.0625 kg/ha): 3.5
herbicidal rating IPOHE ([11]; rate 0.0156 kg/ha): 9.0
herbicidal rating IPOHE ([11]; rate 0.0313 kg/ha): 9.0
herbicidal rating IPOHE ([11]; rate 0.0625 kg/ha): 9.0
herbicidal rating CASOB (CASOB (Sicklepod) [12]; rate 0.0156 kg/ha): 4.0
herbicidal rating CASOB (CASOB (Sicklepod) [12]; rate 0.0313 kg/ha): 4.0
herbicidal rating CASOB (CASOB (Sicklepod) [12]; rate 0.0625 kg/ha): 9.0
